Assay results reported in patent US20080312184A1 (priority 2005, published 2008).
Read-outs that look alike come from different tables or passages of the source.

System: late blight phenylamide-resistant strain (zoospore+zoosporangia)
Assay type: in vivo, tomatoes (cultivar: sekai-ichi)
Details: single active ingredient
[1] = Table 3, treated concentration 5 ppm, examined after 5 days
[2] = Table 3, treated concentration 10 ppm, examined after 5 days

Compound: C[C@@]1(c2ccc(Oc3ccccc3)cc2)OC(=O)N(Nc2ccccc2)C1=O (racemic) [Famoxadone, famoxadone]
- Control Value (Table 3, treated concentration 20 ppm, examined after 5 days): 62

Compound: COC(=O)N(OC)c1ccccc1COc1ccn(-c2ccc(Cl)cc2)n1 [Pyraclostrobin, pyraclostrobin]
- Control Value (Table 9 (Example B), treated concentration 5 ppm): 62

Compound: Cc1ccc(C(C)NC(=O)[C@@H](NC(=O)OC(C)C)C(C)C)cc1 (some centres unmarked) [Iprovalicarb, iprovalicarb]
- Control Value [1]: 70

Compound: metiram
- Control Value (Table 3, treated concentration 50 ppm, examined after 5 days): 56

Compound: CSC1=N[C@@](C)(c2ccccc2)C(=O)N1Nc1ccccc1 [Fenamidone, fenamidone]
- Control Value [2]: 58

Compound: Cc1ccc(-c2c(Cl)nc(C#N)n2S(=O)(=O)N(C)C)cc1 [Cyazofamid, cyazofamid]
- Control Value [2]: 70

Compound: CC(C)OC(=O)N[C@H](C(=O)N[C@H](C)c1nc2ccc(F)cc2s1)C(C)C [Benthiavalicarb-isopropyl, benthiavalicarb-isopropyl]
- Control Value [1]: 70

Compound: CCNc1nc(CC)c(C(=O)NC(C#N)c2cccs2)s1 (centres unmarked) [Ethaboxam, ethaboxam]
- Control Value [2]: 62

Compound: CCC(C)(NC(=O)c1cc(Cl)c(C)c(Cl)c1)C(=O)CCl (centres unmarked) [Zoxamide, zoxamide]
- Control Value [2]: 60

Compound: CC(C)CC(C)c1sccc1NC(=O)c1cn(C)nc1C(F)(F)F (racemic) [P (penthiopyrad), (RS)—N-[2-(1,3-dimethylbutyl)thiophen-3-yl]-1-methyl-3-tri fluoromethyl-1H-pyrazole-4-carboxamide]
- Control Value [2]: 20
- Control Value (Table 9 (Example B), treated concentration 10 ppm): 20
